Results on three molecules are retold here after patent publication US12246025B2, “Methods of treating cancer with a combination of a platinum-based agent and an anti-tissue factor antibody-drug conjugate” (priority 2018, dated 2025).

In data set [1] the test system is HuPrime® cervical xenograft model CV1248 [P3]. Put plainly: Anti-tumor efficacy of tisotumab vedotin with carboplatin in cervical cancer PDX mouse model. The format is in vivo, BALB/c nude mice. Particulars: alone; tisotumab vedotin 2 mg/kg, carboplatin 40 or 80 mg/kg; FIGS. 3A and 3B. Here is the method: The in vivo anti-tumor efficacy of tisotumab vedotin in combination with carboplatin was evaluated in a patient-derived xenograft (PDX) mouse model in female BALB/c nude mice (Crown Bioscience [Taicang] Inc.). Xenografts were derived from tumor specimens from cancer patients. Tumor fragments were obtained from xenografts in serial passage in nude mice. Tumors were cut into fragments of 2-4 mm diameter and placed in phosphate-buffered saline (PBS) until subcutaneous implantation. A cervical cancer PDX model (HuPrime® cervical xenograft model CV1248 [P3]; Crown Bioscience Inc.) was used in this experiment. Tumor size was determined by caliper measurement at least two times a week and tumor volume was calculated as 0.5×length× width^2. When tumors reached an average volume of 150 mm^3, mice were randomized in 7 groups (10 mice per treatment group). The day of randomization was designated day 0. Mice were treated with the following by intravenous injections: 1) tisotumab vedotin alone at a dose level of 2 mg/kg, provided on day 0, day 7 and day 14; 2) carboplatin (Selleck Chemicals, cat. no. […]

Data set [2] concerns HuPrime® cervical xenograft model CV1248 [R4P5]. Put plainly: Anti-tumor efficacy of tisotumab vedotin with cisplatin in cervical cancer PDX mouse model. Particulars: alone, tisotumab vedotin 2 mg/kg and 4 mg/kg, cisplatin 4 mg/kg; for tumor growth: FIG. 1A-C; for survival: tumor size cut-off 1000 mm^3, FIGS. 1D and 1E. The format is in vivo, BALB/c nude mice. Here is the method: The in vivo anti-tumor efficacy of tisotumab vedotin in combination with cisplatin was evaluated in a patient-derived xenograft (PDX) mouse model in BALB/c nude mice (Crown Bioscience Inc.). Xenografts were derived from tumor specimens from cancer patients. Establishment and characterization of the PDX model was performed following primary implantation into nude mice. Tumor xenografts were passaged approximately three to five times until establishment of stable growth patterns. Tumor fragments were obtained from xenografts in serial passage in nude mice. Tumors were cut into fragments of 2-3 mm diameter and placed in phosphate-buffered saline (PBS) until subcutaneous implantation. A cervical cancer PDX model (HuPrime® cervical xenograft model CV1248 [R4P5]; Crown Bioscience Inc.) was used in this experiment. Tumor size was determined by caliper measurement at least two times a week and tumor volume was calculated as 0.5×length×width^2. When tumors reached the volume of 200 mm^3, mice were randomized in 11 groups (7-8 mice per treatment group). Mice were treated with the following by intravenous injections: 1) tisotumab vedotin alone at a dose level of 0.5 mg/kg, 1 mg/kg, 2 mg/kg or 4 mg/kg provided on day 0 and day 7 of treatment; 2) cisplatin alone at a dose of 4 mg/kg provided on day 0, day 7 and day 14 of treatment; 3) tisotumab vedotin at a dose level of 0.5 mg/kg, 1 mg/kg, 2 mg/kg or 4 mg/kg provided on day 0 and day 7 of treatment in combination with cisplatin at a dose of 4 mg/kg provided on day 0, day 7 and day 14 of treatment; 4) IgG1 isotype control at a dose of 4 mg/kg provided on day 0 and day 7 of treatment; or 5) IgG1-MMAE control at a dose of 4 mg/kg provided on day 0 and day 7 of treatment. […] Mice were housed in individually ventilated (IVC) cages, four or five mice per cage and identified by ear tags.
To determine whether there were statistically significant differences between tumor volumes in control and treatment groups, tumor volumes in the treatment groups were compared with those in the control group (e.g., treatment groups vs IgG1-MMAE control) using Mann-Whitney analysis at the last day that all groups were intact, i.e., day 38. For survival analysis (tumor volume cut-off was 1,000 mm^3). Mantel-Cox analysis was performed on Kaplan-Meier plots with a cut-off set at tumor volume >1,000 mm^3.

The subject of data set [3] is bladder xenograft model BXF1036. Put plainly: Anti-tumor efficacy of tisotumab vedotin with cisplatin in bladder cancer PDX mouse model. Type of data set: in vivo, Crl:NMRI-Foxn1^nu nude mice. Particulars: alone; for tumor growth: tisotumab vedotin 0.5 mg/kg, cisplatin 2 mg/kg, FIG. 2A-C; for survival: tumor size cut-off 500 mm^3, FIG. 2D. Here is the method: The in vivo anti-tumor efficacy of tisotumab vedotin in combination with cisplatin was evaluated in a PDX mouse model in female Crl:NMRI-Foxn1^nu (Envigo RMS SARL, France) nude mice (Charles River Discovery Research Services). Xenografts were derived from tumor specimens from cancer patients. Establishment and characterization of the PDX model was performed following primary implantation into nude mice. Tumor xenografts were passaged approximately three to five times until establishment of stable growth patterns. Tumor fragments were obtained from xenografts in serial passage in nude mice. Tumors were cut into fragments of 3-4 mm diameter and placed in phosphate-buffered saline (PBS) until subcutaneous implantation. A bladder cancer PDX model (bladder xenograft model BXF1036; Charles River Discovery Research Services) was used in this experiment. Tumor size was determined by caliper measurement at least two times a week and tumor volume was calculated as 0.52×length×[…]. When tumors reached the volume of 50-250 mm^3, mice were randomized in 5 groups (10 mice per treatment group). Mice were treated with the following: 1) tisotumab vedotin alone at a dose level of 0.5 mg/kg provided on day 1 of treatment; 2) cisplatin alone at a dose of 2 mg/kg provided on day 1 and day 8 of treatment; 3) tisotumab vedotin at a dose level of 0.5 mg/kg provided on day 1 of treatment in combination with cisplatin at a dose of 2 mg/kg provided on day 1 and day 8 of treatment; 4) IgG1 isotype control at a dose of 0.5 mg/kg provided on day 1 of treatment; or 5) IgG1-MMAE control at a dose of 0.5 mg/kg provided on day 1 of treatment. IgG1 isotype control, IgG1-MMAE control and tisotumab vedotin were each in PBS and injected intravenously. Cisplatin was in 0.9% NaCl and injected subcutaneously. […] Mice were housed in individually ventilated (IVC) cages, with a maximum of five mice per cage, and identified by ear tags.
To determine whether there were statistically significant differences between tumor volumes in control and treatment groups, tumor volumes in the treatment groups were compared with those in the control groups (e.g., IgG1-MMAE control, tisotumab vedotin alone or cisplatin alone) using Mann-Whitney analysis at the last day that all groups were intact, i.e., day 25. Statistical analysis of the difference between groups treated with tisotumab vedotin in combination with cisplatin and groups treated with either tisotumab vedotin alone or cisplatin alone was performed on day 32.
Tumor progression was plotted in a Kaplan-Meier plot, with a cut-off set at a tumor volume >500 mm^3. […]

Data set [4] relates to relapsed, recurrent, and/or metastatic cervical cancer. Particulars: cited from earlier work.

With `N.N.O=C([O-])C1(C(=O)[O-])CCC1.[Pt+2]` [Carboplatin, reference compound], the tumor growth entry in data set [1] is given as “did not inhibit tumor growth”.

As to `N.N.[Cl][Pt][Cl]` [Cisplatin, reference compound], in data set [2], the tumor growth entry is “inhibited tumor growth” and the survival entry was “prolonged survival”. In addition, in data set [3], the tumor growth entry was “inhibited tumor growth” and the survival result is on record as “prolonged survival”.

For “Tisotumab vedotin: antibody-drug conjugate comprising an antibody that binds to tissue factor (TF), a protease-cleavable linker, and the microtubule disrupting agent MMAE”, the tumor growth entry in data set [2], in data set [3] and in data set [1] was “efficiently inhibited tumor growth” throughout. Also, the survival result in data set [2] and in data set [3] was “prolonged survival” throughout. Besides, the efficacy entry in data set [4] (2.0 mg/kg) is recorded as “robust efficacy”. In addition, the safety profile entry in data set [4] (2.0 mg/kg) is recorded as “manageable safety profile”. Moreover, the “grade of reported peripheral neuropathy cases” value in data set [4] (in vivo) is “majority of the reported cases are grade 1-2”. Also, the “Epistaxis (bleeding AE)” value in data set [4] (nearly all of the cases are grade 1) is reported as “most common reported AE”. Further, the “subjects with peripheral neuropathy” value in data set [4] (subjects who received treatment with tisotumab vedotin) is listed as “approximately 35%”.
